Reference: patent US11173124B2, “Oral delivery of GLP-1 peptide analogs” (MEDIMMUNE LIMITED, priority 2017, dated 2021)

Experiment: Canine site of absorption study, IntelliCap, SEQ ID NO:3 solution formulations (Example 10)
Type: in vivo, Beagle dogs
Details: for bioavailability: Beagle, plasma; for bioavailability / AUC(0-t) / Cmax / Tmax: dog, pH 8, canine; for F: canine; for AUC(0-t) / Cmax / Tmax: in vivo
Description: The IntelliCap® system, an electronic oral drug delivery and monitoring device, was used to determine regional absorption for solution formulations. In the form of a capsule, the IntelliCap® incorporates a microprocessor, battery, pH sensor, temperature sensor, radio frequency (RF) wireless transceiver, fluid pump, and drug reservoir. The IntelliCap® system can determine the drug's position in the gastrointestinal (GI) tract by a pH monitoring sensor in the capsule, thereby eliminating the need for in vivo imaging. This system was employed to assess the site of absorption of GLP-1 peptide analogs in the GI tract following oral delivery to canines (Beagle dogs). Solution formulations without permeation enhancer excipients were used as intravenous (IV) and subcutaneous (SC) controls in the study. In brief, solution formulations were prepared and transferred to the IntelliCap® capsule which was dosed to canines, wherein the formulation was released at a specific site in the GI tract.

[1] = po, 0.74 mg/kg, PO IntelliCap capsule-proximal small bowel, 8 mg/mL peptide, 10 mg/mL Na CDC, 2 mg/mL Sodium Caprate, PBS pH 8.0
[2] = po, 0.74 mg/kg, PO IntelliCap proximal colon, 8 mg/mL peptide, 10 mg/mL Na CDC, 2 mg/mL Sodium Caprate, PBS pH 8.0
[3] = po, 0.74 mg/kg, PO gavage, 8 mg/mL peptide, 10 mg/mL Na CDC, 2 mg/mL Sodium Caprate, PBS pH 8.0
[4] = iv, 0.01 mg/kg, 0.1 mg/mL peptide in PBS pH 8.0
[5] = sc, 0.01 mg/kg, 0.1 mg/mL peptide in PBS pH 8.0

bioavailability [1]: 1.14%
bioavailability [2]: 3.95%
bioavailability [3]: 0.19%
F (IV, 0.01 mg/kg, 0.1 mg/mL peptide in PBS pH 8.0): 100%
F (SC, 0.01 mg/kg, 0.1 mg/mL peptide in PBS pH 8.0): 105.84%
AUC(0-t) [4]: 1650 ng·h/mL
Cmax [4]: 140 ng/mL
Tmax [4]: 30 min
AUC(0-t) [1]: 1390 ng·h/mL
Cmax [1]: 60.7 ng/mL
Tmax [1]: 30 min
AUC(0-t) [2]: 4840 ng·h/mL
Cmax [2]: 386 ng/mL
AUC(0-t) [3]: 228 ng·h/mL
Cmax [3]: 7.1 ng/mL
Tmax [3]: 240 min
AUC(0-t) [5]: 1750 ng·h/mL
Cmax [5]: 45.1 ng/mL
Structure (SMILES): CC[C@H](C)[C@H](NC(=O)C(C)(Cc1ccccc1)NC(=O)[C@H](CCC(=O)O)NC(=O)[C@H](CCCCNC(=O)COCCOCCNC(=O)COCCOCCNC(=O)CC[C@H](NC(=O)CCCCCCCCCCCCCCCCC(=O)O)C(=O)O)NC(=O)[C@H](C)NC(=O)[C@H](C)NC(=O)[C@H](CCC(=O)O)NC(=O)CNC(=O)[C@H](CCC(=O)O)NC(=O)[C@H](CC(C)C)NC(=O)C(C)(Cc1ccccc1)NC(=O)[C@H](CO)NC(=O)C(C)(CO)NC(=O)[C@@H](NC(=O)[C@H](CC(=O)O)NC(=O)[C@H](CO)NC(=O)[C@@H](NC(=O)C(C)(Cc1ccccc1)NC(=O)[C@H](CO)NC(=O)CNC(=O)[C@H](CCC(=O)O)NC(=O)C(C)(C)NC(=O)[C@@H](N)Cc1c[nH]cn1)[C@@H](C)O)C(C)C)C(=O)N[C@@H](C)C(=O)NC(C)(Cc1ccccc1)C(=O)N[C@H](C(=O)N[C@H](C(=O)NC(C)(CCCCN)C(=O)NCC(=O)NCC(N)=O)C(C)C)C(C)C (stereo partly drawn) [SEQ ID NO: 3, Free-H-[AIB]-EGS-[αMePhe]-TSDV-[αMeSer]-S-[αMePhe]-LEGEAAK[(PEG2)2-γE-Stearate]-E-[αMePhe]-IA-[αMePhe]-VV-[αMeLys]-GG-amide]
